Experiments:
Type in all cases: functional
[1] = system: Mycobacterium tuberculosis; experiment: Antimycobacterial activity against Mycobacterium tuberculosis H37Rv ATCC 27294 after 3 days by microplate Alamar Blue assay; settings: H37Rv ATCC 27294, 72 h
Escherichia coli [2] = experiment: Antibacterial activity against Escherichia coli ATCC 25922 after 18 to 24 hrs by CLSI M100-S11 method
Escherichia coli [3] = experiment: Antibacterial activity against extended-spectrum beta-lactamase-producing Escherichia coli 14-1 after 18 to 24 hrs by CLSI M100-S11 method
Escherichia coli [4] = experiment: Antibacterial activity against extended-spectrum beta-lactamase-producing Escherichia coli 14-2 after 18 to 24 hrs by CLSI M100-S11 method
Escherichia coli [5] = experiment: Antibacterial activity against Escherichia coli 14-1 after 18 to 24 hrs by CLSI M100-S11 method
Escherichia coli [6] = experiment: Antibacterial activity against Escherichia coli 14-2 after 18 to 24 hrs by CLSI M100-S11 method
Klebsiella pneumoniae [7] = experiment: Antibacterial activity against extended-spectrum beta-lactamase-producing Klebsiella pneumoniae 14-17 after 18 to 24 hrs by CLSI M100-S11 method
Klebsiella pneumoniae [8] = experiment: Antibacterial activity against extended-spectrum beta-lactamase-producing Klebsiella pneumoniae 14-18 after 18 to 24 hrs by CLSI M100-S11 method
Klebsiella pneumoniae [9] = experiment: Antibacterial activity against extended-spectrum beta-lactamase-producing Klebsiella pneumoniae 14-19 after 18 to 24 hrs by CLSI M100-S11 method
Klebsiella pneumoniae [10] = experiment: Antibacterial activity against Klebsiella pneumoniae 14-1 after 18 to 24 hrs by CLSI M100-S11 method
Klebsiella pneumoniae [11] = experiment: Antibacterial activity against Klebsiella pneumoniae 14-2 after 18 to 24 hrs by CLSI M100-S11 method
Klebsiella pneumoniae [12] = experiment: Antibacterial activity against Klebsiella pneumoniae 14-3 after 18 to 24 hrs by CLSI M100-S11 method
Klebsiella pneumoniae [13] = experiment: Antibacterial activity against Klebsiella pneumoniae 14-4 after 18 to 24 hrs by CLSI M100-S11 method
Pseudomonas aeruginosa [14] = experiment: Antibacterial activity against Pseudomonas aeruginosa ATCC 27853 after 18 to 24 hrs by CLSI M100-S11 method
Pseudomonas aeruginosa [15] = experiment: Antibacterial activity against Pseudomonas aeruginosa 14-9 after 18 to 24 hrs by CLSI M100-S11 method
Pseudomonas aeruginosa [16] = experiment: Antibacterial activity against Pseudomonas aeruginosa 14-14 after 18 to 24 hrs by CLSI M100-S11 method
Pseudomonas aeruginosa [17] = experiment: Antibacterial activity against Pseudomonas aeruginosa 14-15 after 18 to 24 hrs by CLSI M100-S11 method
Pseudomonas aeruginosa [18] = experiment: Antibacterial activity against Pseudomonas aeruginosa 14-16 after 18 to 24 hrs by CLSI M100-S11 method
Pseudomonas aeruginosa [19] = experiment: Antibacterial activity against Pseudomonas aeruginosa 14-19 after 18 to 24 hrs by CLSI M100-S11 method
Staphylococcus aureus [20] = experiment: Antibacterial activity against Staphylococcus aureus CMCC 26003 after 18 to 24 hrs by CLSI M100-S11 method
Staphylococcus aureus [21] = experiment: Antibacterial activity against methicillin-sensitive Staphylococcus aureus 14-2 after 18 to 24 hrs by CLSI M100-S11 method
Staphylococcus aureus [22] = experiment: Antibacterial activity against methicillin-sensitive Staphylococcus aureus 14-3 after 18 to 24 hrs by CLSI M100-S11 method
Staphylococcus aureus [23] = experiment: Antibacterial activity against methicillin-sensitive Staphylococcus aureus 14-4 after 18 to 24 hrs by CLSI M100-S11 method
Staphylococcus aureus [24] = experiment: Antibacterial activity against methicillin-resistant Staphylococcus aureus 14-4 after 18 to 24 hrs by CLSI M100-S11 method
Staphylococcus aureus [25] = experiment: Antibacterial activity against methicillin-resistant Staphylococcus aureus 14-5 after 18 to 24 hrs by CLSI M100-S11 method
[26] = system: Staphylococcus epidermidis; experiment: Antibacterial activity against methicillin-sensitive Staphylococcus epidermidis 14-2 after 18 to 24 hrs by CLSI M100-S11 method
[27] = system: Staphylococcus epidermidis; experiment: Antibacterial activity against methicillin-sensitive Staphylococcus epidermidis 14-4 after 18 to 24 hrs by CLSI M100-S11 method
[28] = system: Staphylococcus epidermidis; experiment: Antibacterial activity against methicillin-sensitive Staphylococcus epidermidis 14-6 after 18 to 24 hrs by CLSI M100-S11 method
[29] = system: Staphylococcus epidermidis; experiment: Antibacterial activity against methicillin-resistant Staphylococcus epidermidis 14-22 after 18 to 24 hrs by CLSI M100-S11 method
[30] = system: Staphylococcus epidermidis; experiment: Antibacterial activity against methicillin-resistant Staphylococcus epidermidis 14-37 after 18 to 24 hrs by CLSI M100-S11 method
[31] = system: Staphylococcus epidermidis; experiment: Antibacterial activity against methicillin-resistant Staphylococcus epidermidis 14-39 after 18 to 24 hrs by CLSI M100-S11 method
Streptococcus pneumoniae = experiment: Antibacterial activity against Streptococcus pneumoniae ATCC 19615 after 18 to 24 hrs by CLSI M100-S11 method
Enterococcus faecium [32] = experiment: Antibacterial activity against Enterococcus faecium 14-1 after 18 to 24 hrs by CLSI M100-S11 method
Enterococcus faecium [33] = experiment: Antibacterial activity against Enterococcus faecium 14-2 after 18 to 24 hrs by CLSI M100-S11 method
Enterococcus faecalis [34] = experiment: Antibacterial activity against Enterococcus faecalis 14-1 after 18 to 24 hrs by CLSI M100-S11 method
Enterococcus faecalis [35] = experiment: Antibacterial activity against Enterococcus faecalis 14-2 after 18 to 24 hrs by CLSI M100-S11 method
Enterococcus faecalis [36] = experiment: Antibacterial activity against Enterococcus faecalis 14-3 after 18 to 24 hrs by CLSI M100-S11 method

Measured: MIC

CC1(CN)CN(c2nc3c(cc2F)c(=O)c(C(=O)O)cn3-c2nc(N)c(F)cc2F)C/C1=N\OCc1ccccc1 (centres undefined)
15.6 µg/mL: [1]
4 µg/mL: Staphylococcus aureus [23]
> 128 µg/mL: Escherichia coli [4] | Escherichia coli [5] | Klebsiella pneumoniae [7] | Klebsiella pneumoniae [8] | Klebsiella pneumoniae [9] | Klebsiella pneumoniae [10] | Klebsiella pneumoniae [11] | Klebsiella pneumoniae [12] | Klebsiella pneumoniae [13] | [26] | [27] | [28] | [30] | [31] | Enterococcus faecium [32] | Enterococcus faecalis [34] | Enterococcus faecalis [35] | Enterococcus faecalis [36]
32 µg/mL: Streptococcus pneumoniae
8 µg/mL: Staphylococcus aureus [22] | Enterococcus faecium [33]
0.25 µg/mL: Staphylococcus aureus [20] | Staphylococcus aureus [21]
128 µg/mL: Escherichia coli [6] | Pseudomonas aeruginosa [14] | Pseudomonas aeruginosa [15] | Pseudomonas aeruginosa [16] | Pseudomonas aeruginosa [17] | Pseudomonas aeruginosa [18] | Pseudomonas aeruginosa [19]
16 µg/mL: Escherichia coli [2]
64 µg/mL: Escherichia coli [3] | Staphylococcus aureus [24] | Staphylococcus aureus [25] | [29]

O=C(O)c1cn(C2CC2)c2cc(N3CCNCC3)c(F)cc2c1=O [CIPROFLOXACIN]
0.25 µg/mL: [1]

NNC(=O)c1ccncc1 [ISONIAZID]
0.05 µg/mL: [1]

Nc1nc(-n2cc(C(=O)O)c(=O)c3cc(F)c(N4CC/C(=N\OCc5ccccc5)C(N)C4)nc32)c(F)cc1F (centres undefined)
64 µg/mL: Escherichia coli [2] | Streptococcus pneumoniae | Enterococcus faecium [33]
> 32 µg/mL: [1]
128 µg/mL: Escherichia coli [3] | Pseudomonas aeruginosa [14] | Pseudomonas aeruginosa [15] | Pseudomonas aeruginosa [16] | Pseudomonas aeruginosa [17] | Pseudomonas aeruginosa [18] | Pseudomonas aeruginosa [19] | Enterococcus faecalis [34] | Enterococcus faecalis [35]
8 µg/mL: Staphylococcus aureus [20] | Staphylococcus aureus [21] | Staphylococcus aureus [23]
> 128 µg/mL: Escherichia coli [4] | Escherichia coli [5] | Escherichia coli [6] | Klebsiella pneumoniae [7] | Klebsiella pneumoniae [8] | Klebsiella pneumoniae [9] | Klebsiella pneumoniae [10] | Klebsiella pneumoniae [11] | Klebsiella pneumoniae [12] | Klebsiella pneumoniae [13] | Staphylococcus aureus [24] | Staphylococcus aureus [25] | [26] | [27] | [28] | [29] | [30] | Enterococcus faecium [32] | Enterococcus faecalis [36]
4 µg/mL: Staphylococcus aureus [22]

NC[C@H]1/C(=N/OCc2ccccc2)CN1c1nc2c(cc1F)c(=O)c(C(=O)O)cn2-c1nc(N)c(F)cc1F
> 130 µg/mL: [31]
32 µg/mL: Enterococcus faecium [33]
128 µg/mL: Klebsiella pneumoniae [8] | Pseudomonas aeruginosa [15] | Pseudomonas aeruginosa [16] | Pseudomonas aeruginosa [17] | Pseudomonas aeruginosa [18]
64 µg/mL: Escherichia coli [3] | Pseudomonas aeruginosa [14] | Streptococcus pneumoniae
4 µg/mL: Escherichia coli [2] | Staphylococcus aureus [22] | Staphylococcus aureus [23]
> 32 µg/mL: [1]
2 µg/mL: Staphylococcus aureus [20] | Staphylococcus aureus [21]
> 128 µg/mL: Escherichia coli [4] | Escherichia coli [5] | Escherichia coli [6] | Klebsiella pneumoniae [7] | Klebsiella pneumoniae [9] | Klebsiella pneumoniae [10] | Klebsiella pneumoniae [11] | Klebsiella pneumoniae [12] | Klebsiella pneumoniae [13] | Staphylococcus aureus [24] | Staphylococcus aureus [25] | [26] | [27] | [28] | [29] | [30] | Enterococcus faecium [32] | Enterococcus faecalis [34] | Enterococcus faecalis [35] | Enterococcus faecalis [36]

CO/N=C1\CCN(c2nc3c(cc2F)c(=O)c(C(=O)O)cn3-c2nc(N)c(F)cc2F)CC1N (centres undefined)
8 µg/mL: Staphylococcus aureus [20] | Staphylococcus aureus [21] | Staphylococcus aureus [22]
64 µg/mL: Streptococcus pneumoniae | Enterococcus faecium [33]
> 128 µg/mL: Escherichia coli [3] | Escherichia coli [4] | Escherichia coli [5] | Escherichia coli [6] | Klebsiella pneumoniae [7] | Klebsiella pneumoniae [8] | Klebsiella pneumoniae [9] | Klebsiella pneumoniae [10] | Klebsiella pneumoniae [11] | Klebsiella pneumoniae [12] | Klebsiella pneumoniae [13] | Staphylococcus aureus [24] | Staphylococcus aureus [25] | [26] | [27] | [28] | [29] | [30] | Enterococcus faecium [32] | Enterococcus faecalis [34] | Enterococcus faecalis [35] | Enterococcus faecalis [36]
16 µg/mL: Escherichia coli [2] | Staphylococcus aureus [23]
> 32 µg/mL: [1]
128 µg/mL: Pseudomonas aeruginosa [14] | Pseudomonas aeruginosa [15] | Pseudomonas aeruginosa [16] | Pseudomonas aeruginosa [17] | Pseudomonas aeruginosa [18] | Pseudomonas aeruginosa [19]

C[C@H]1COc2c(N3CCN(C)CC3)c(F)cc3c(=O)c(C(=O)O)cn1c23.C[C@H]1COc2c(N3CCN(C)CC3)c(F)cc3c(=O)c(C(=O)O)cn1c23.O [LEVOFLOXACIN]
128 µg/mL: [26] | Enterococcus faecium [32]
8 µg/mL: Escherichia coli [4] | Klebsiella pneumoniae [11] | Klebsiella pneumoniae [13] | Staphylococcus aureus [25]
1 µg/mL: [27] | Enterococcus faecium [33]
0.125 µg/mL: Escherichia coli [2] | Staphylococcus aureus [20] | Staphylococcus aureus [22]
2 µg/mL: Escherichia coli [3] | [28]
64 µg/mL: Klebsiella pneumoniae [9] | Staphylococcus aureus [24] | [30] | [31] | Enterococcus faecalis [36]
0.25 µg/mL: [1] | Staphylococcus aureus [21]
32 µg/mL: [29] | Enterococcus faecalis [35]
0.5 µg/mL: Staphylococcus aureus [23]
16 µg/mL: Klebsiella pneumoniae [10] | Klebsiella pneumoniae [12] | Enterococcus faecalis [34]
4 µg/mL: Escherichia coli [5] | Escherichia coli [6] | Klebsiella pneumoniae [7]

Nc1nc(-n2cc(C(=O)O)c(=O)c3cc(F)c(N4CC/C(=N\OCc5ccccc5)C(O)C4)nc32)c(F)cc1F (centres undefined)
32 µg/mL: Streptococcus pneumoniae | Enterococcus faecium [33]
> 128 µg/mL: Escherichia coli [4] | Escherichia coli [5] | Escherichia coli [6] | Klebsiella pneumoniae [7] | Klebsiella pneumoniae [8] | Klebsiella pneumoniae [9] | Klebsiella pneumoniae [10] | Klebsiella pneumoniae [11] | Klebsiella pneumoniae [13] | Staphylococcus aureus [24] | Staphylococcus aureus [25] | [26] | [27] | [28] | [29] | [30] | Enterococcus faecium [32] | Enterococcus faecalis [34] | Enterococcus faecalis [35] | Enterococcus faecalis [36]
16 µg/mL: Escherichia coli [2]
2 µg/mL: Staphylococcus aureus [20]
128 µg/mL: Escherichia coli [3] | Pseudomonas aeruginosa [14] | Pseudomonas aeruginosa [15] | Pseudomonas aeruginosa [16] | Pseudomonas aeruginosa [17] | Pseudomonas aeruginosa [18] | Pseudomonas aeruginosa [19]
64 µg/mL: Klebsiella pneumoniae [12]
4 µg/mL: Staphylococcus aureus [21] | Staphylococcus aureus [22] | Staphylococcus aureus [23]
> 32 µg/mL: [1]

CO/N=C1\CCN(c2nc3c(cc2F)c(=O)c(C(=O)O)cn3-c2nc(N)c(F)cc2F)CC1O (centres undefined)
> 128 µg/mL: Escherichia coli [4] | Escherichia coli [5] | Escherichia coli [6] | Klebsiella pneumoniae [7] | Klebsiella pneumoniae [8] | Klebsiella pneumoniae [9] | Klebsiella pneumoniae [10] | Klebsiella pneumoniae [11] | Klebsiella pneumoniae [12] | Klebsiella pneumoniae [13] | Staphylococcus aureus [24] | [26] | [27] | [28] | [29] | [30] | Enterococcus faecium [32] | Enterococcus faecalis [34] | Enterococcus faecalis [35] | Enterococcus faecalis [36]
4 µg/mL: Staphylococcus aureus [22] | Staphylococcus aureus [23]
2 µg/mL: Staphylococcus aureus [20] | Staphylococcus aureus [21]
128 µg/mL: Pseudomonas aeruginosa [14] | Pseudomonas aeruginosa [15] | Pseudomonas aeruginosa [16] | Pseudomonas aeruginosa [17] | Pseudomonas aeruginosa [18] | Pseudomonas aeruginosa [19] | Staphylococcus aureus [25]
64 µg/mL: Escherichia coli [2] | Escherichia coli [3] | Streptococcus pneumoniae | Enterococcus faecium [33]
30.7 µg/mL: [1]

CO[C@H]1/C=C/O[C@@]2(C)Oc3c(C)c(O)c4c(O)c(c(/C=N/N5CCN(C)CC5)c(O)c4c3C2=O)NC(=O)/C(C)=C\C=C\[C@H](C)[C@H](O)[C@@H](C)[C@@H](O)[C@@H](C)[C@H](OC(C)=O)[C@@H]1C [RIFAMPIN]
0.05 µg/mL: [1]
